Experimental data taken from paper PMC9098913, “In vitro reconstitution of Escherichia coli divisome activation” (Nature Communications, 2022).
Read-outs that look alike come from different tables or passages of the source.

B1: FtsA R286W (protein)
chain: MIKATDRKLVVGLEIGTAKVAALVGEVLPDGMVNIIGVGSCPSRGMDKGGVNDLESVVKCVQRAIDQAELMADCQISSVYLALSGKHISCQNEIGMVPISEEEVTQEDVENVVHTAKSVRVRDEHRVLHVIPQEYAIDYQEGIKNPVGLSGVRMQAKVHLITCHNDMAKNIVKAVERCGLKVDQLIFAGLASSYSVLTEDERELGVCVVDIGGGTMDIAVYTGGALRHTKVIPYAGNVVTSDIAYAFGTPPSDAEAIKVRHGCALGSIVGKDESVEVPSVGGRPPWSLQRQTLAEVIEPRYTELLNLVNEEILQLQEKLRQQGVKHHLAAGIVLTGGAAQIEGLAACAQRVFHTQVRIGAPLNITGLTDYAQEPYYSTAVGLLHYGKESHLNGEAEVEKRVTASVGSWIKRLNSWLRKEF
modifications: Cy3 or Cy5 at the N-terminus in the labelled form (labelled CLEPTGG peptide conjugated to the 5xGly tag by sortagging); unlabelled protein also used; left off: TwinStrep-SUMO, N-terminal, cleaved | 5x

Tested on: FtsZ
Conditions: for PCCdiff FtsA/FtsZ: 1.25 µM FtsZ, mean ± s.d.
[1] = 0.1µM FtsAs, replicate column 1
[2] = 0.1µM FtsAs, replicate column 2
[3] = 0.1µM FtsAs, replicate column 3
[4] = 0.2µM FtsAs, replicate column 1
[5] = 0.2µM FtsAs, replicate column 2
[6] = 0.2µM FtsAs, replicate column 3
[7] = 0.2µM FtsAs, replicate column 4
[8] = 0.2µM FtsAs, replicate column 5
[9] = 0.4 µM FtsA, p-value 1.82 × 10^−4
[10] = 0.4µM FtsAs, replicate column 1
[11] = 0.4µM FtsAs, replicate column 2
[12] = 0.4µM FtsAs, replicate column 3
[13] = 0.8µM FtsAs, replicate column 1
[14] = 0.8µM FtsAs, replicate column 2
[15] = 0.8µM FtsAs, replicate column 3
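Also: pearson correlation of FtsA and FtsZ channels in dual-colour TIRF movies after subtracting consecutive frames to isolate growing filament ends, one frame per 2 s, ATP and GTP present.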

From the text: For this aim, we prepared differential time lapse movies[24], where we subtract the intensities of consecutive frames to selectively visualize the growing ends of filament bundles (Fig. 1d). We then calculated the Pearson correlation coefficient between the two channels of the differential movies (PCCdiff), which quantifies the covariation of the fluorescence signals for FtsA and FtsZ at the growing end of a filament bundle with a time resolution of the acquisition rate[4],[23],[24].
Additionally, the reaction chamber contained 4 mM ATP and 4 mM GTP, as well as a scavenging system to minimize photobleaching effects: 30 mM d-glucose, 0.050 mg ml^−1 Glucose Oxidase, 0.016 mg ml^−1 Catalase, 1 mM DTT and 1 mM Trolox. Prior addition of all components a corresponding buffer volume was removed from the chamber to obtain a total reaction volume of 100 µl. The dynamic protein pattern was monitored by time-lapse TIRF microscopy at one frame per 2 s and 50 ms exposure time.
Treadmilling dynamics, were quantified using an automated image analysis protocol previously developed by our group[24]. To visualize colocalization of the co-treadmilling FtsZ & FtsA filaments, we used dual-colour videos obtained at an acquisition rate of one frame per 2 s. The two channels were aligned using FIJI’s 3TP align plugin. Both channels were then subjected to the image subtraction protocol and colocalization was measured as described above.

Molecule	PCC FtsA/FtsZ, mean of experiment (head 'Fig.1e_PCC'; n and values fit Fig. 1f PCCdiff) [1]	PCC FtsA/FtsZ, mean of experiment (head 'Fig.1e_PCC'; n and values fit Fig. 1f PCCdiff) [2]	PCC FtsA/FtsZ, mean of experiment (head 'Fig.1e_PCC'; n and values fit Fig. 1f PCCdiff) [3]	PCC FtsA/FtsZ, mean of experiment (head 'Fig.1e_PCC'; n and values fit Fig. 1f PCCdiff) [4]	PCC FtsA/FtsZ, mean of experiment (head 'Fig.1e_PCC'; n and values fit Fig. 1f PCCdiff) [5]	PCC FtsA/FtsZ, mean of experiment (head 'Fig.1e_PCC'; n and values fit Fig. 1f PCCdiff) [6]	PCC FtsA/FtsZ, mean of experiment (head 'Fig.1e_PCC'; n and values fit Fig. 1f PCCdiff) [7]	PCC FtsA/FtsZ, mean of experiment (head 'Fig.1e_PCC'; n and values fit Fig. 1f PCCdiff) [8]	PCCdiff FtsA/FtsZ [9]	PCC FtsA/FtsZ, mean of experiment (head 'Fig.1e_PCC'; n and values fit Fig. 1f PCCdiff) [10]	PCC FtsA/FtsZ, mean of experiment (head 'Fig.1e_PCC'; n and values fit Fig. 1f PCCdiff) [11]	PCC FtsA/FtsZ, mean of experiment (head 'Fig.1e_PCC'; n and values fit Fig. 1f PCCdiff) [12]	PCC FtsA/FtsZ, mean of experiment (head 'Fig.1e_PCC'; n and values fit Fig. 1f PCCdiff) [13]	PCC FtsA/FtsZ, mean of experiment (head 'Fig.1e_PCC'; n and values fit Fig. 1f PCCdiff) [14]	PCC FtsA/FtsZ, mean of experiment (head 'Fig.1e_PCC'; n and values fit Fig. 1f PCCdiff) [15]	other results
FtsA WT: wild-type E. coli actin-homologue FtsA, membrane anchor of FtsZ	0.69	0.76	0.71	0.62	0.58	0.67	0.71	0.74	0.18 ± 0.04	0.18	0.12	0.23	0.10	0.12	0.05	PCC FtsA/FtsZ, mean of experiment (head 'Fig.1e_PCC'; n and values fit Fig. 1f PCCdiff) (0.1µM FtsAs, replicate column 4): 0.71; PCC FtsA/FtsZ, mean of experiment (head 'Fig.1e_PCC'; n and values fit Fig. 1f PCCdiff) (0.1µM FtsAs, replicate column 5): 0.86; PCC FtsA/FtsZ, mean of experiment (head 'Fig.1e_PCC'; n and values fit Fig. 1f PCCdiff) (0.1µM FtsAs, replicate column 6): 0.67; PCC FtsA/FtsZ, mean of experiment (head 'Fig.1e_PCC'; n and values fit Fig. 1f PCCdiff) (0.2µM FtsAs, replicate column 6): 0.57
B1	0.68	0.67	0.48	0.74	0.79	0.75	0.76	0.68	0.76 ± 0.04	0.72	0.78	0.82	0.79	0.82	0.76	PCC FtsA/FtsZ, mean of experiment (head 'Fig.1e_PCC'; n and values fit Fig. 1f PCCdiff) (0.4µM FtsAs, replicate column 4): 0.72; PCCdiff FtsA/FtsZ (0.8 µM FtsA R286W): 0.76 ± 0.05; PCC FtsA/FtsZ, mean of experiment (head 'Fig.1e_PCC'; n and values fit Fig. 1f PCCdiff) (0.8µM FtsAs, replicate column 4): 0.69
